Assay results taken from ChEMBL document CHEMBL2029210, “Synthesis of constrained benzocinnolinone analogues of CEP-26401 (irdabisant) as potent, selective histamine H3 receptor inverse agonists” (Bioorg Med Chem Lett, 2012).

Columns and labels:
Histamine H3 receptor [1] = target: Histamine H3 receptor (Rattus norvegicus, UniProt Q9QYN8); assay: Displacement of [3H]NAMH from rat histamine H3 receptor expressed in CHO cell membrane; type: cell membranes
Homo sapiens [2] = species: Homo sapiens; assay: Selectivity ratio of Ki for human H1 receptor to Ki for human H3 receptor
Cytochrome P450 2D6 = Cytochrome P450 2D6 (Homo sapiens, UniProt P10635); assay: Inhibition of CYP2D6; type: ADME
Cytochrome P450 1A2 = target: T1, Cytochrome P450 1A2 (Homo sapiens, UniProt P05177); assay: Inhibition of CYP1A2; type: ADME
T1 sequence (P05177 whole entry): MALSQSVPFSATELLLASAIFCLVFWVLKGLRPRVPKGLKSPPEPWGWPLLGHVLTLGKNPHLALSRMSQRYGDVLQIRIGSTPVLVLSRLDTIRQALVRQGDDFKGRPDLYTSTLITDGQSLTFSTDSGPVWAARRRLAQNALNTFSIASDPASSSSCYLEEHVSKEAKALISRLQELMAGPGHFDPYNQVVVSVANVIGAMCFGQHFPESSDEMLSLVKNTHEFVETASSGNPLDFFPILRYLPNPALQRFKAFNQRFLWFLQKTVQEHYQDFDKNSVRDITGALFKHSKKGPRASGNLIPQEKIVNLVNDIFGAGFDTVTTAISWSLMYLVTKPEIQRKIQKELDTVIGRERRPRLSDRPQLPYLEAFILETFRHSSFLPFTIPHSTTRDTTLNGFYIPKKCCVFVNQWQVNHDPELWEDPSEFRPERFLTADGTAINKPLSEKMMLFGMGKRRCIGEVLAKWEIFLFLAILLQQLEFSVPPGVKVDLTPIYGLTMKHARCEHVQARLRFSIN

Cytochrome P450 3A4 = Cytochrome P450 3A4 (Homo sapiens, UniProt P08684); assay: Inhibition of CYP3A4; type: ADME
Sequence of Cytochrome P450 3A4 (P08684 whole entry): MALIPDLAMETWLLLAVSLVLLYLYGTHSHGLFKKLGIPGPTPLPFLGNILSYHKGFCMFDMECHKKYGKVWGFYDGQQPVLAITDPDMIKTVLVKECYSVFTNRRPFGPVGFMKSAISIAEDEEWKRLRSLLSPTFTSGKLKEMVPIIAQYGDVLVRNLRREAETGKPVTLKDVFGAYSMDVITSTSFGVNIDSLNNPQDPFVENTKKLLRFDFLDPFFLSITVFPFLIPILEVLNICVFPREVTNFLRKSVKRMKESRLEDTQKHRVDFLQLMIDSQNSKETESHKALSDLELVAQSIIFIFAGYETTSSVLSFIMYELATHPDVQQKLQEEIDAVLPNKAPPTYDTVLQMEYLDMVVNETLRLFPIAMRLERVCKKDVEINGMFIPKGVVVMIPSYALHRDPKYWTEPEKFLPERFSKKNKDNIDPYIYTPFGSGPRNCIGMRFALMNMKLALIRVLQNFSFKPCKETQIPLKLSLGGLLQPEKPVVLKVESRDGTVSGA

hERG (KCNH2) = hERG (KCNH2) (Homo sapiens, UniProt Q12809); assay: Displacement of astemizole from human ERG at 10 uM; conditions: probe astemizole
Sequence of hERG (KCNH2) (Q12809 whole entry): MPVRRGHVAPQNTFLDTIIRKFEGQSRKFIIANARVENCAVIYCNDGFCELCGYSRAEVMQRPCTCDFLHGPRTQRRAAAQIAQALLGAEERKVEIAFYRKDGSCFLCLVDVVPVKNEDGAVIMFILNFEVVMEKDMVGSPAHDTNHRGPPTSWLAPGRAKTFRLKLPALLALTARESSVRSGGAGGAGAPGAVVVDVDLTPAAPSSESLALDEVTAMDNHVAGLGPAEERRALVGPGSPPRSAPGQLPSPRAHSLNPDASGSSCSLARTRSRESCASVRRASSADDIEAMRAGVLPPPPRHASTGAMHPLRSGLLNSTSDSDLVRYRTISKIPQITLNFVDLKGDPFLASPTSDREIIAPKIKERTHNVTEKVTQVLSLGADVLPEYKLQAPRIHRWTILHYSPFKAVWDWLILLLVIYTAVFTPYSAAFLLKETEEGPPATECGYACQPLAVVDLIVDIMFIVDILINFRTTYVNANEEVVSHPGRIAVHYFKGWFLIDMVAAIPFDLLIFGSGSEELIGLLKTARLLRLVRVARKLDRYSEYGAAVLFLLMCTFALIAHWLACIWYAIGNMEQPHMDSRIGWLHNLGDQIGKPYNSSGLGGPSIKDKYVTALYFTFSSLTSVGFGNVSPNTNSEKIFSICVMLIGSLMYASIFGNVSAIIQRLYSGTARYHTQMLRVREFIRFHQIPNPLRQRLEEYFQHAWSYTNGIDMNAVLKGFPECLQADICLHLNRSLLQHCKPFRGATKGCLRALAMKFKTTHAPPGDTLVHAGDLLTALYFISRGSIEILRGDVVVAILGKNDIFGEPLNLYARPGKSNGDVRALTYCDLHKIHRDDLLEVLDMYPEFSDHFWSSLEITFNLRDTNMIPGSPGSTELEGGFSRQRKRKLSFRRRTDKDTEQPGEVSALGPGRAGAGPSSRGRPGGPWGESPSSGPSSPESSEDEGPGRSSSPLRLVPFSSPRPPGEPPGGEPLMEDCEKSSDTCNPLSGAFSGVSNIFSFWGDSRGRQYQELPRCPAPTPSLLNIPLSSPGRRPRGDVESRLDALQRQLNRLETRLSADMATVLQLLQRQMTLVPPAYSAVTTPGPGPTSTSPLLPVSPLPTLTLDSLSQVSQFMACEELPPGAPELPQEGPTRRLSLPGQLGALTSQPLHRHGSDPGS

[3] = target: Histamine H2 receptor (Homo sapiens) (UniProt P25021); assay: Binding affinity to human histamine H2 receptor at 10 uM by radioligand binding assay
Sequence of Histamine H2 receptor (Homo sapiens) (P25021 whole entry): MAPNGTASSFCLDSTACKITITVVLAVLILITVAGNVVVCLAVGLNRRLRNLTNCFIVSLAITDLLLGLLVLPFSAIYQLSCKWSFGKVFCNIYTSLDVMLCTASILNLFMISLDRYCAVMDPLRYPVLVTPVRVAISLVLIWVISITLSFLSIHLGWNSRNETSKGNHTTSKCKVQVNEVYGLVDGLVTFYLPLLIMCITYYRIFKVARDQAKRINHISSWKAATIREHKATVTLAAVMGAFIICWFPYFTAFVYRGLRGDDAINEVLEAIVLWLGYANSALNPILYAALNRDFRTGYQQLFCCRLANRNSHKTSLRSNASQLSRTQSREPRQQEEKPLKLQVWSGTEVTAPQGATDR

Cytochrome P450 2C19 = Cytochrome P450 2C19 (Homo sapiens, UniProt P33261); assay: Inhibition of CYP2C19; type: ADME
Sequence of Cytochrome P450 2C19 (P33261 whole entry): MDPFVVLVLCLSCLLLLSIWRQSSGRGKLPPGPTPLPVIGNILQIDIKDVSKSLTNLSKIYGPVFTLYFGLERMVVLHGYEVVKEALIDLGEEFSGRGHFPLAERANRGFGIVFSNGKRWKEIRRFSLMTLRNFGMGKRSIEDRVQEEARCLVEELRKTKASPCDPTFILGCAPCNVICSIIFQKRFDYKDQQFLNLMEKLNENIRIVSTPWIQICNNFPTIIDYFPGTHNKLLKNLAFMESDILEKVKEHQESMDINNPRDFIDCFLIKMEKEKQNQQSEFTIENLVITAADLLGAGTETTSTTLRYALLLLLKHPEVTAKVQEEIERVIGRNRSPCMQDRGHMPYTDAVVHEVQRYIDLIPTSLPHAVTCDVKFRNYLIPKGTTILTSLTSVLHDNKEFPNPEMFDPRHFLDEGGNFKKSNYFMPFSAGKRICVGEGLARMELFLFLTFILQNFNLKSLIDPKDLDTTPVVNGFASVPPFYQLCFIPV

[4] = target: Histamine H4 receptor (Homo sapiens) (UniProt Q9H3N8); assay: Binding affinity to human histamine H4 receptor at 10 uM by radioligand binding assay
Sequence of Histamine H4 receptor (Homo sapiens) (Q9H3N8 whole entry): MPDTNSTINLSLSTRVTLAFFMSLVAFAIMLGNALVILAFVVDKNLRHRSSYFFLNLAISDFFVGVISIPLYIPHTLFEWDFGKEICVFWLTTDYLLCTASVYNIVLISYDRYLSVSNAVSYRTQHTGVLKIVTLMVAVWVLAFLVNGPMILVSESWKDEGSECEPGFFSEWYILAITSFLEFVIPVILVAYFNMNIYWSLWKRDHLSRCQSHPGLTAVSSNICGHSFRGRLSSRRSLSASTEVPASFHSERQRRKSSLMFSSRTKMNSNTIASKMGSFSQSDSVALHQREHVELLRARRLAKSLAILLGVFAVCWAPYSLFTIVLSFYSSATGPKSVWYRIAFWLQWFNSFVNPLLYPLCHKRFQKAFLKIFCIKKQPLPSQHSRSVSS

Histamine H3 receptor [5] = target: T2, Histamine H3 receptor (Homo sapiens, UniProt Q9Y5N1); assay: Displacement of [3H]NAMH from human histamine H3 receptor expressed in CHO cell membrane; type: cell membranes
T2 sequence (Q9Y5N1 whole entry): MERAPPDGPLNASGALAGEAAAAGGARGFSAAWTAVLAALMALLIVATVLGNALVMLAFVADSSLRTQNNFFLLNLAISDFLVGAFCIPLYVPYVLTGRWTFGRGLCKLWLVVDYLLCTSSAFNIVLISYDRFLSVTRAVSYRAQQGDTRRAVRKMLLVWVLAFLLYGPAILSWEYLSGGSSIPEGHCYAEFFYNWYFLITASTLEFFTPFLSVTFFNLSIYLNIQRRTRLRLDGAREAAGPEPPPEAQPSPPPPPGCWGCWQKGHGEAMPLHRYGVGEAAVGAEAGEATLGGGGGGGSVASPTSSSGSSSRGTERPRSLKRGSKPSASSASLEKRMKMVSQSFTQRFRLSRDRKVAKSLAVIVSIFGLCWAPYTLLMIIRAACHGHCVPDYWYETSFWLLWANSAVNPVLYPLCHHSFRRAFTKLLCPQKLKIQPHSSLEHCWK

[6] = Oral bioavailability in rat at 5 mg/kg; type: ADME, organism-based; conditions: in vivo
[7] = Clearance in rat at 1 mg/kg, iv; type: ADME, organism-based; set-up: dose 1 mg/kg, route intravenous; conditions: in vivo
[8] = (§1) Half life in rat at 1 mg/kg, iv; type: ADME, organism-based; set-up: dose 1 mg/kg, route intravenous; conditions: in vivo
Cytochrome P450 2C9 = Cytochrome P450 2C9 (Homo sapiens, UniProt P11712); assay: Inhibition of CYP2C9; type: ADME
Sequence of Cytochrome P450 2C9 (P11712 whole entry): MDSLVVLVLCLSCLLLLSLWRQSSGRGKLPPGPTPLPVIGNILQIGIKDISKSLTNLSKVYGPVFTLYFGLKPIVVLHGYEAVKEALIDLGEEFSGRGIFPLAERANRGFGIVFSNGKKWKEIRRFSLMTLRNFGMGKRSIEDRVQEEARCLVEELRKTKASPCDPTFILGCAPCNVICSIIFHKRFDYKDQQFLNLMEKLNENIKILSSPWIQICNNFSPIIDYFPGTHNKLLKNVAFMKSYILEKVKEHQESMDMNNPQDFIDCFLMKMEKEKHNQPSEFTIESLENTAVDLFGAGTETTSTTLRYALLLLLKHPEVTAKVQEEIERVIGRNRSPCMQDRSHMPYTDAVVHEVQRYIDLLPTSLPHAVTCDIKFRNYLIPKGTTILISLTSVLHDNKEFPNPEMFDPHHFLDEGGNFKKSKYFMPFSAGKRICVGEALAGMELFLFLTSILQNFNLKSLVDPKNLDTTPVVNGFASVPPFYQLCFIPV

Homo sapiens [9] = species: Homo sapiens; assay: Selectivity ratio of Ki for human H4 receptor to Ki for human H3 receptor
[10] = (§2) Volume of distribution in rat at 1 mg/kg, iv; type: ADME, organism-based; set-up: dose 1 mg/kg, route intravenous; conditions: in vivo
[11] = AUC in rat at 5 mg/kg, po; type: ADME, organism-based; set-up: dose 5 mg/kg, route oral; conditions: plasma
Histamine H3 receptor [12] = target: T2, Histamine H3 receptor; assay: Inverse agonist activity at human H3 receptor by [35S]GTPgamma binding assay; type: functional
[13] = target: Histamine H1 receptor (Homo sapiens) (UniProt P35367); assay: Binding affinity to human histamine H1 receptor at 10 uM by radioligand binding assay
Sequence of Histamine H1 receptor (Homo sapiens) (P35367 whole entry): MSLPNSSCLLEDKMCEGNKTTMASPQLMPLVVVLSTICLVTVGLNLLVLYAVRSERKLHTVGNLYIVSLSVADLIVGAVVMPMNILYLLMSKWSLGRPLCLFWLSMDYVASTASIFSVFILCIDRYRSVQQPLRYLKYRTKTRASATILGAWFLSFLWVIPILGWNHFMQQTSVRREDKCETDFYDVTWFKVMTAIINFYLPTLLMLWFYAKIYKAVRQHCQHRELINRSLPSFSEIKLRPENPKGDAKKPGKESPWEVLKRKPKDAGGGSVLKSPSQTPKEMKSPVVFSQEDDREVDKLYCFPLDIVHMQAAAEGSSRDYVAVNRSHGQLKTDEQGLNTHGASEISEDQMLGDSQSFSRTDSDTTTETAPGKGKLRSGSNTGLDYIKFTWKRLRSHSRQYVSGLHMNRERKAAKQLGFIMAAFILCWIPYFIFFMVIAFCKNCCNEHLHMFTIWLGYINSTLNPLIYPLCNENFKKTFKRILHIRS

Homo sapiens [14] = species: Homo sapiens; assay: Selectivity ratio of Ki for human H2 receptor to Ki for human H3 receptor
[15] = Cmax in rat at 5 mg/kg, po; type: ADME, organism-based; set-up: dose 5 mg/kg, route oral; conditions: in vivo
Rattus norvegicus [16] = assay: as §1; type: ADME, organism-based; set-up: dose 1 mg/kg, route intravenous; conditions: in vivo
[17] = Drug uptake in rat brain at 5 mg/kg, po after 6 hrs; type: ADME, organism-based; set-up: dose 5 mg/kg, route oral; conditions: read-out: Drug uptake
[18] = Ratio of drug uptake in brain to plasma in rat at 5 mg/kg, po; type: ADME, organism-based; set-up: dose 5 mg/kg, route oral; conditions: read-out: BPR
Rattus norvegicus [19] = assay: as §2; type: ADME, organism-based; set-up: dose 1 mg/kg, route intravenous; conditions: in vivo

Sequence of Histamine H3 receptor (Rattus norvegicus, UniProt Q9QYN8) (Q9QYN8 whole entry): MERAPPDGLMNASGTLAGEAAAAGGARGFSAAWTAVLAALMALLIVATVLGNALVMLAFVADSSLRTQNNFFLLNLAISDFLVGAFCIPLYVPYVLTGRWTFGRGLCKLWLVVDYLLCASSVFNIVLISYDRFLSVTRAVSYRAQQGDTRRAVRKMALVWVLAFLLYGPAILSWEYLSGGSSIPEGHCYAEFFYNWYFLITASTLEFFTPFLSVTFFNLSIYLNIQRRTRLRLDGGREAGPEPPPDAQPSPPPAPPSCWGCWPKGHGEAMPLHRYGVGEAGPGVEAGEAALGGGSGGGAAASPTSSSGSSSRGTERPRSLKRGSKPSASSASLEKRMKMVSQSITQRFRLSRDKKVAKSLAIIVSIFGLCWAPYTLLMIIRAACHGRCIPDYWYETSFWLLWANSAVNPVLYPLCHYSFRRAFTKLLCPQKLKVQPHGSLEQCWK

Row | Structure (SMILES) | Ki (Histamine H3 receptor [1]) [nM] | Ratio Ki (Homo sapiens [2]) | inhibition [3] [%] | inhibition [4] [%] | Ki (Histamine H3 receptor [5]) [nM] | bioavailability [6] [%] | clearance [7] [mL/min/kg] | half-life [8] [min] | Ratio Ki (Homo sapiens [9]) | Vd [10] [L/kg] | AUC [11] [ng·h/mL] | inhibition [13] [%] | Ratio Ki (Homo sapiens [14]) | Cmax [15] [ng/mL] | also measured
1 | C[C@@H]1CCCN1CCCOc1ccc2c(c1)CCc1cc(=O)n(C)nc1-2 | 8.3 | > 1000 | < 40 | < 40 | 3.6 | 3 | 36 | 24 | > 1000 | 1.3 | 80 | < 40 | > 1000 | 24 | IC50 (Cytochrome P450 2D6): > 30000 nM; IC50 (Cytochrome P450 1A2): > 30000 nM; IC50 (Cytochrome P450 3A4): > 30000 nM; inhibition at 10 µM (hERG (KCNH2)): 34%; IC50 (Cytochrome P450 2C19): > 30000 nM; IC50 (Cytochrome P450 2C9): > 30000 nM; EC50 (Histamine H3 receptor [12]): 1.7 nM
2 | C[C@@H]1CCCN1CCCOc1ccc2c(c1)CCc1n[nH]c(=O)cc1-2 | 19 | – | < 45 | < 45 | 6.2 | – | – | – | – | – | – | < 45 | – | – | –
3 | CC(C)n1nc2c(cc1=O)CCc1cc(OCCCN3CCC[C@H]3C)ccc1-2 | 17 | > 1000 | < 40 | < 40 | 4.2 | – | – | – | > 1000 | – | – | < 40 | > 1000 | – | –
4 | O=c1cc2c(nn1Cc1ccccc1)-c1ccc(OCCCN3CCCCC3)cc1CC2 | 140 | – | – | – | 105 | – | – | – | – | – | – | – | – | – | –
5 | C[C@@H]1CCCN1CCCOc1ccc2c(c1)CCC1CC(=O)NN=C21 (mixture of isomers) | 53 | – | – | – | 15 | 11 | 93 | 42 | – | 6 | 96 | – | – | 27 | –
6 | C[C@@H]1CCCN1CCCOc1ccc2c(c1)CCc1cc(=O)[nH]nc1-2 | 14 | > 1000 | < 40 | < 40 | 4.3 | 2 | 11 | 84 | > 1000 | 1.2 | 191 | < 40 | > 1000 | 34 | –
7 | C[C@@H]1CCCN1CCCOc1ccc2c(c1)CCc1cc(=O)n(-c3ccccc3)nc1-2 | 23 | – | – | – | 16 | – | – | – | – | – | – | – | – | – | –
8 | O=C1CC2CCc3cc(OC4CCN(C5CCC5)CC4)ccc3C2=NN1 (racemic) | 26 | – | – | – | 17 | 44 | – | – | – | – | 468 | – | – | 75 | t1/2 (Rattus norvegicus [16]): 54 min; concentration at 6 h [17]: 780 nM; Kp [18]: 5.2; Vd (Rattus norvegicus [19]): 6.6 L/kg
